Tests used:
Experiment in all cases: Postemergence foliar-applied, direct seeded rice, greenhouse: visual weed control
Assay type in all cases: in vivo
[1] = system: Cyperus difformis L. (CYPDI); settings: 20 DAA; 5.3 g ae/ha
Protocol: (§1) Seeds or nutlets of the desired test plant species were planted in a soil matrix prepared by mixing a loam or sandy loam soil (e.g., 28.6 percent silt, 18.8 percent clay, and 52.6 percent sand, with a pH of about 5.8 and an organic matter content of about 1.8 percent) and calcareous grit in an 80 to 20 ratio. The soil matrix was contained in plastic pots with a volume of 1 quart and a surface area of 83.6 cm^2. […] The plants were grown for 8-22 days in a greenhouse with an approximate 14 h photoperiod which was maintained at about 29° C. during the day and 26° C. during the night. Nutrients (Peters Excel® 15-5-15 5-Ca 2-Mg and iron chelate) were applied in the irrigation solution as needed and water was added on a regular basis. Supplemental lighting was provided with overhead metal halide 1000-Watt lamps as necessary. The plants were employed for testing when they reached the first through fourth true leaf stage.
(§2) Forms of compound A were applied on an acid equivalent basis.
(§3) For treatments comprised of formulated compounds, measured amounts of compounds were placed individually in 25 mL glass vials and diluted in a volume of 1.25% (v/v) Agri-Dex® crop oil concentrated to obtain 12× stock solutions. […] Application solutions were prepared by adding an appropriate amount of each stock solution (e.g., 1 mL) and diluted to the appropriate final concentrations with the addition of 10 mL of an aqueous mixture of 1.25% (v/v) crop oil concentrate so that the final spray solutions contained 1.25+/−0.05% (v/v) crop oil concentrate.
(§4) As required, additional water and/or 97:3 v/v acetone/DMSO was added to individual application solutions so that the final acetone and DMSO concentrations of the application solutions being compared were 8.1% and 0.25%, respectively.
(§5) All stock solutions and applications solutions were visually inspected for compound compatibility prior to application. Spray solutions were applied to the plant material with an overhead Mandel track sprayer equipped with a 8002E nozzles calibrated to deliver 187 L/ha over an application area of 0.503 m^2 at a spray height of 18 to 20 inches (46 to 50 cm) above average plant canopy height. Control plants were sprayed in the same manner with the solvent blank.
(§6) The treated plants and control plants were placed in a greenhouse as described above and watered by sub-irrigation to prevent wash-off of the test compounds. After approximately 3 weeks, the condition of the test plants as compared with that of the untreated plants was determined visually and scored on a scale of 0 to 100 percent where 0 corresponds to no injury or growth inhibition and 100 corresponds to complete kill.
(§7) Colby's equation was used to determine the herbicidal effects expected from the mixtures (Colby, S. R. 1967. Calculation of the synergistic and antagonistic response of herbicide combinations. Weeds 15:20-22.).
(§8) The following equation was used to calculate the expected activity of mixtures containing two active ingredients, A and B: Expected=A+B−(A×B/100)

[2] = system: Cyperus esculentus L. (CYPES); settings: 20 DAA
Protocol: as §1, §2, §3, §4, §5, §6, §7, §8

[3] = system: Schoenoplectus juncoides (Roxb.) Palla (SCPJU); settings: 20 DAA; 5.3 g ae/ha
Protocol: as §1, §2, §3, §4, §5, §6, §7, §8

For `COc1c(Cl)ccc(-c2nc(C(=O)O)c(Cl)c(N)c2F)c1F` [Compound A Acid, 4-amino-3-chloro-6-(4-chloro-2-fluoro-3-methoxyphenyl)-5-fluoropyridine-2-carboxylic acid], the “Visual Weed Control (%) Obs” value [1] was 80%, the “Visual Weed Control (%) Obs” value ([2]; 5.3 g ae/ha) was 0% and the “Visual Weed Control (%) Obs” value ([2]; 10.6 g ae/ha) was 90%. The “Visual Weed Control (%) Obs” value [3] was 25%.
